Results reported in patent publication US20110166121A1 (LG LIFE SCIENCES LTD., priority 2008, published 2011).

Each compound was assayed against T1, Human P2Y12 receptor (Homo sapiens, UniProt Q9H244) (assay: Human P2Y12 receptor cell membrane binding assay with [3H] 2-Mes-ADP). Settings: 1 nM [3H] 2-Mes-ADP, membranes of HEK cells expressing P2Y12 receptor; read-out: Binding activity (IC50).
T1 construct: expressed in transfected cells; host or cells: HEK cells
Experimental: Human P2Y12 Receptor Cell Membrane Binding Assay with [^3H] 2-Mes-ADP
Whether test compounds bind to P2Y12 receptor is measured by [3H]-2MesADP binding in HEK cells expressing P2Y12 receptor. The efficacy according to the amount of test compound can be known through the above test, competitive binding test to P2Y12 receptor, in which the binding material (2-Mes-ADP) is labeled with radioactivity isotope and then the extent of inhibition against the binding of radioactively labeled material is measured.
Preparation of P2Y12 Membrane Protein Fraction
Harvested P2Y12 cells were resuspended with Hypotonic buffer (10 mM HEPES, 10 mM NaCl, 1 mM EDTA, 1 mM EGTA pH 7.4) containing protease inhibitor cocktail. Following the incubation on ice for 15 min, cells were homogenized on ice (Glass/Teflon homogenizer; 1,000 rpm, 10 strokes). The supernant was taken from centrifugation at 500×g for 15 min and then recentrifuged the supernant at 30,000 rpm for 30 min. The membrane pellet was adjusted to 1 mg/mL concentration and stored at −80° C.
P2Y12 Receptor Cell Membrane Binding Assay with [3H] 2-Mes-ADP
The volume of 100 μL of 200 μg membrane protein was aliquoted into 96 well plate. 50 μL volume of test compounds and [^3H] 2-Mes-ADP (final: 1 nM) were added into each well. The total reaction of 0.2 ml/well was incubated for 1 hour at R.T. The reaction was terminated by filtration through GF/B filter using a 96-well cell harvester. […] Radioactivity bound to P2Y12 receptor membrane was counted in a scintillation counter. Total binding was determined with CPM of test group having no compound and non-specific binding was determined with CPM of test group containing 10 μM 2-Mes-ADP. Binding inhibition percent was calculated as follows: [100−(specific binding in the presence of test material/specific binding in the absence of test material×100)].

T1 sequence (Q9H244 whole entry): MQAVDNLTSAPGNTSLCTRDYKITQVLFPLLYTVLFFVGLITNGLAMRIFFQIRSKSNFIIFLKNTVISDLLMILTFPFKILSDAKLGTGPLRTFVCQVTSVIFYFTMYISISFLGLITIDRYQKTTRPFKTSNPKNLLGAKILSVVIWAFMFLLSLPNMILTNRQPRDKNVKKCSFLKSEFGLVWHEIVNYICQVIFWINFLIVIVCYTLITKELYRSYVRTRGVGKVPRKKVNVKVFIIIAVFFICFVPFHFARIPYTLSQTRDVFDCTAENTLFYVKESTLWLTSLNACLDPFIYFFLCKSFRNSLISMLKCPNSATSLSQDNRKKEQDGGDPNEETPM

| IC50 [nM] | Structure (SMILES) |
| --- | --- |
| 680 | CCc1nc2c(N3CCn4c(nnc4C(F)(F)F)C3)nc(N3CCNC(=O)C3)nc2s1 [Example 5-1, 4-[2-Ethyl-7-(3-trifluoromethyl-5,6-dihydro-8H-[1,2,4]triazolo[4,3-a]pyrazin-7-yl)-thiazolo[5,4-d]pyrimidin-5-yl]-piperazin-2-one] |
| 2320 | CCc1nc2c(N3CCn4c(nnc4C(F)(F)F)C3)nc(NCCO)nc2s1 [Example 5-2, 2-[2-Ethyl-7-(3-trifluoromethyl-5,6-dihydro-8H-[1,2,4]triazolo[4,3-a]pyrazin-7-yl)-thiazolo[5,4-d]pyrimidin-5-ylamino]-ethanol] |
| 1150 | CCc1nc2c(N3CCn4c(nnc4C(F)(F)F)C3)nc(N3CCN(C)CC3)nc2s1 [Example 5-3, 2-Ethyl-5-(4-methyl-piperazin-1-yl)-7-(3-trifluoromethyl-5,6-dihydro-8H-[1,2,4]triazolo[4,3-a]pyrazin-7-yl)-thiazolo[5,4-d]pyrimidine] |
| 133 | CCc1cc2c(N3CCn4c(nnc4C(F)(F)C(F)(F)F)C3)nc(N3CCNC(=O)C3)nc2s1 [Example 6-1, 4-[6-Ethyl-4-(3-pentafluoroethyl-5,6-dihydro-8H-[1,2,4]triazolo[4,3-a]pyrazin-7-yl)-thieno[2,3-d]pyrimidin-2-yl]-piperazin-2-one] |
| 1200 | CCc1cc2c(N3CCn4c(nnc4C(F)(F)C(F)(F)F)C3)nc(NCC(O)CO)nc2s1 (stereo not shown) [Example 6-2, 3-[6-Ethyl-4-(3-pentafluoroethyl-5,6-dihydro-8H-[1,2,4]triazolo[4,3-a]pyrazin-7-yl)-thieno[2,3-d]pyrimidin-2-ylamino]-propane-1,2-diol] |
| 7000 | CCc1cc2c(N3CCn4cnnc4C3)nc(N3CCNC(=O)C3)nc2s1 [Example 6-10, 4-[4-(5,6-Dihydro-8H-[1,2,4]triazolo[4,3-a]pyrazin-7-yl)-6-ethyl-thieno[2,3-d]pyrimidin-2-yl]-piperazin-2-one] |
| 1950 | CCc1cc2c(N3CCn4c(nnc4-c4ccccc4)C3)nc(N3CCNC(=O)C3)nc2s1 [Example 6-19, 4-[6-Ethyl-4-(3-phenyl-5,6-dihydro-8H-[1,2,4]triazolo[4,3-a]pyrazin-7-yl)-thieno[2,3-d]pyrimidin-2-yl]-piperazin-2-one] |
| 7640 | CCc1cc2c(N3CCn4ccnc4C3)nc(N3CCNC(=O)C3)nc2s1 [Example 6-20, 4-[4-(5,6-Dihydro-8H-imidazo[1,2-a]pyrazin-7-yl)-6-ethyl-thieno[2,3-d]pyrimidin-2-yl]-piperazin-2-one] |
| 14500 | CCc1cc2c(N3CCn4ccnc4C3)nc(OCC(O)CO)nc2s1 (stereo not shown) [Example 6-21, 3-[4-(5,6-Dihydro-8H-imidazo[1,2-a]pyrazin-7-yl)-6-ethyl-thieno[2,3-d]pyrimidin-2-yloxy]-propane-1,2-diol] |
| 10000 | CCc1cc2c(N3CCn4cc(C(F)(F)F)nc4C3)nc(N3CCNC(=O)C3)nc2s1 [Example 6-22, 4-[6-Ethyl-4-(2-trifluoromethyl-5,6-dihydro-8H-imidazo[1,2-a]pyrazin-7-yl)-thieno[2,3-d]pyrimidin-2-yl]-piperazin-2-one] |
| 12000 | CCc1cc2c(N3CCn4cc(C(F)(F)F)nc4C3)nc(OCC(O)CO)nc2s1 (stereo not shown) [Example 6-23, 3-[6-Ethyl-4-(2-trifluoromethyl-5,6-dihydro-8H-imidazo[1,2-a]pyrazin-7-yl)-thieno[2,3-d]pyrimidin-2-yloxy]-propane-1,2-diol] |
| 30000 | CCc1cc2c(N3CCc4[nH]ncc4C3)nc(N3CCNC(=O)C3)nc2s1 [Example 6-24, 4-[6-Ethyl-4-(1,4,6,7-tetrahydro-pyrazolo[4,3-c]pyridin-5-yl)-thieno[2,3-d]pyrimidin-2-yl]-piperazin-2-one] |
| 16400 | CCc1cc2c(N3CCc4[nH]nc(C(F)(F)F)c4C3)nc(N3CCNC(=O)C3)nc2s1 [Example 6-26, 4-[6-Ethyl-4-(3-trifluoromethyl-1,4,6,7-tetrahydro-pyrazolo[4,3-c]pyridin-5-yl)-thieno[2,3-d]pyrimidin-2-yl]-piperazin-2-one] |

Continued, compound first:

| Structure (SMILES) | IC50 [nM] |
| --- | --- |
| CCc1cc2c(N3CCn4c(nnc4C(F)(F)F)C3)nc(N[C@@H]3C[C@H](OCCO)[C@@H](O)[C@H]3O)nc2s1 [Example 2-4, (1S,2S,3R,5S)-3-[6-Ethyl-4-(3-trifluoromethyl-5,6-dihydro-8H-[1,2,4]triazolo[4,3-a]pyrazin-7-yl)-thieno[2,3-d]pyrimidin-2-ylamino]-5-(2-hydroxy-ethoxy)-cyclopentane-1,2-diol] | 8920 |
| CCc1cc2c(N3CCn4c(nnc4C(F)(F)F)C3)nc(NCCN)nc2s1 [Example 2-8, N*1*-[6-Ethyl-4-(3-trifluoromethyl-5,6-dihydro-8H-[1,2,4]triazolo[4,3-a]pyrazin-7-yl)-thieno[2,3-d]pyrimidin-2-yl]-ethane-1,2-diamine] | 2280 |
| CCc1cc2c(N3CCn4c(nnc4C(F)(F)F)C3)nc(NCC(=O)O)nc2s1 [Example 2-9, [6-Ethyl-4-(3-trifluoromethyl-5,6-dihydro-8H-[1,2,4]triazolo[4,3-a]pyrazin-7-yl)-thieno[2,3-d]pyrimidin-2-ylamino]-acetic acid] | 2170 |
| CC(C)c1cc2c(N3CCn4c(nnc4C(F)(F)F)C3)nc(NCCO)nc2s1 [Example 2-11, 2-[6-Isopropyl-4-(3-trifluoromethyl-5,6-dihydro-8H-[1,2,4]triazolo[4,3-a]pyrazin-7-yl)-thieno[2,3-d]pyrimidin-2-ylamino]-ethanol] | 1820 |
| CC(C)c1cc2c(N3CCn4c(nnc4C(F)(F)F)C3)nc(N3CCN(C)CC3)nc2s1 [Example 2-13, 7-[6-Isopropyl-2-(4-methyl-piperazin-1-yl)-thieno[2,3-d]pyrimidin-4-yl]-3-trifluoromethyl-5,6,7,8-tetrahydro-[1,2,4]triazolo[4,3-a]pyrazine] | 1100 |
| CCCc1cc2c(N3CCn4c(nnc4C(F)(F)F)C3)nc(OC3Cc4ccccc4C3)nc2s1 [Example 3-22, 7-[2-(Indan-2-yloxy)-6-propyl-thieno[2,3-d]pyrimidin-4-yl]-3-trifluoromethyl-5,6,7,8-tetrahydro-[1,2,4]triazolo[4,3-a]pyrazine] | 130 |
| CCc1cc2c(N3CCn4c(nnc4C(F)(F)F)C3)nc(OCC(O)CO)nc2s1 (stereo not shown) [Example 3-49, 3-[6-Ethyl-4-(3-trifluoromethyl-5,6-dihydro-8H-[1,2,4]triazolo[4,3-a]pyrazin-7-yl)-thieno[2,3-d]pyrimidin-2-yloxy]-propane-1,2-diol] | 406 |
| CCCc1cc2c(N3CCn4c(nnc4C(F)(F)F)C3)nc(C(=O)OCC)nc2s1 [Example 4-1, 6-Propyl-4-(3-trifluoromethyl-5,6-dihydro-8H-[1,2,4]triazolo[4,3-a]pyrazin-7-yl)thieno[2,3-d]pyrimidine-2-carboxylic acid ethyl ester] | 240 |
| CCCc1cc2c(N3CCn4c(nnc4C(F)(F)F)C3)nc(C(=O)O)nc2s1 [Example 4-2, 6-Propyl-4-(3-trifluoromethyl-5,6-dihydro-8H-[1,2,4]triazolo[4,3-a]pyrazin-7-yl)-thieno[2,3-d]pyrimidine-2-carboxylic acid] | 3050 |
| CCc1cc2c(N3CCn4c(nnc4C(F)(F)F)C3)nc(C(=O)NCC(=O)O)nc2s1 [Example 4-4, {[6-Ethyl-4-(3-trifluoromethyl-5,6-dihydro-8H-[1,2,4]triazolo[4,3-a]pyrazin-7-yl)-thieno[2,3-d]pyrimidine-2-carbonyl]amino}acetic acid] | 1000 |
| CCc1cc2c(N3CCn4c(nnc4C(F)(F)F)C3)nc(C(=O)NCCO)nc2s1 [Example 4-5, 6-Ethyl-4-(3-trifluoromethyl-5,6-dihydro-8H-[1,2,4]triazolo[4,3-a]pyrazin-7-yl)thieno[2,3-d]pyrimidine-2-carboxylic acid (2-hydroxy-ethyl)amide] | 1580 |
| CCc1cc2c(N3CCn4c(nnc4C(F)(F)F)C3)nc(CN3CC[C@@H](O)C3)nc2s1 [Example 4-20, (R)-1-[6-Ethyl-4-(3-trifluoromethyl-5,6-dihydro-8H-[1,2,4]triazolo[4,3-a]pyrazin-7-yl)thieno[2,3-d]pyrimidin-2-ylmethyl]pyrrolidin-3-ol] | 4210 |

Same assay, conditions: 30 μM compound; 1 nM [3H] 2-Mes-ADP

| Structure (SMILES) | inhibition at 30 µM [%] |
| --- | --- |
| CCCc1cc2c(N3CCn4c(nnc4C(F)(F)F)C3)nc(Sc3ccccc3)nc2s1 [Example 3-52, 7-(2-Phenylsulfanyl-6-propyl-thieno[2,3-d]pyrimidin-4-yl)-3-trifluoromethyl-5,6,7,8-tetrahydro-[1,2,4]triazolo[4,3-a]pyrazine] | 20 |
| CCc1cc2c(N3CCn4cnnc4C3)nc(OCC(O)CO)nc2s1 (stereo not shown) [Example 6-11, 3-[4-(5,6-Dihydro-8H-[1,2,4]triazolo[4,3-a]pyrazin-7-yl)-6-ethyl-thieno[2,3-d]pyrimidin-2-yloxy]-propane-1,2-diol] | 39.3 |
| CCc1cc2c(N3CCc4[nH]ncc4C3)nc(OCC(O)CO)nc2s1 (stereo not shown) [Example 6-25, 3-[6-Ethyl-4-(1,4,6,7-tetrahydro-pyrazolo[4,3-c]pyridin-5-yl)-thieno[2,3-d]pyrimidin-2-yloxy]-propane-1,2-diol] | 38.6 |
